Assay results reported in patent US3975529A, “Diebenzo(B,E)thiepines” (Roussel-UCLAF, priority 1974, dated 1976).

Columns and labels:
[1] = tested on: antinociceptive activity of oxotremorine; assay: Antagonism of antinociceptive activity of oxotremorine, hot plate (Table III); format: in vivo, mice
Procedure: The antinociceptive activity of oxotremorine [Leslie, J. Pharm. Pharmae., Vol. 2 (1969), p. 248-50] was determined on mice using the hot plate method of Eddy et al [J. Pharmacol. Vol. 107 (1953), p. 385] in the presence and absence of the test product presumed to be antagonistic. The product of Example 1 was administered subcutaneously in aqueous solution at doses of 50 and 100 mg/kg to groups of 10 mice and the products of Examples 2 to 5 were subcutaneously administered in sesame oil solution at doses of 200 and 400 mg/kg to groups of 10 mice. The mice then received a single intraperitoneal injection of 0.5 mg/kg of oxotremorine either 4 hours, 1 day, 2, 3, 4 or 7 days after the test product administration. For each time considerated, the mice were placed on the hot plate one half hour after the oxotremorine administration and the time for the appearance of nociceptive refluxes consistituted by simultaneous licking of the front paws was noted. The maximum time of staying on the hot plate was fixed at 45 seconds and the percentage of animals with a reaction time (RT) less than 40 seconds in spite of oxotremorine administration was determined.

[2] = tested on: trembling and peripherical cholinergic manifestations provoked by tremorine; assay: Antitremorine activity as a function of time (Table I); format: in vivo, mice; details: for % inhibition of reactions: L (lacrymation) / % inhibition of reactions: S (salivation) / % inhibition of reactions: T (trembling): 200 mg/kg s.c. sesame oil
Procedure: The antagonism of the test compounds to the trembling and peripherical cholinergic manifestations provoked by tremorine [Everett et al, Science, Vol. 124 (1956), p. 79] was studied on mice.
The products of Examples 2 and 3 were administered subcutaneously in sesame oil solution at doses of 200 and 400 mg/kg at a volume of 25 ml/kg to groups of 10 mice. The mice receied intraperitoneal injections of 20 mg/kg of tremorine either for 4 hours, one day, 2, 3 or 4 days after injection of the test product. […] The reactions (T-trembling; S-salivation; L-lacrymation) were noted 10, 20, 30 and 60 minutes after the tremorine injection and the percent of inhibition of the different reactions at the height of the effect after injection of tremorine were noted as a function of time.

[3] = 200 mg/kg s.c. sesame oil, after 4 h
[4] = 200 mg/kg s.c. sesame oil, after 1 d
[5] = 200 mg/kg s.c. sesame oil, after 2 d
[6] = 200 mg/kg s.c. sesame oil, after 3 d
[7] = 200 mg/kg s.c. sesame oil, after 4 d
[8] = 200 mg/kg s.c. sesame oil, after 7 d
[9] = 400 mg/kg s.c. sesame oil, after 4 h
[10] = 400 mg/kg s.c. sesame oil, after 1 d
[11] = 400 mg/kg s.c. sesame oil, after 2 d
[12] = 400 mg/kg s.c. sesame oil, after 3 d
[13] = 400 mg/kg s.c. sesame oil, after 4 d
[14] = 400 mg/kg s.c. sesame oil, after 7 d

Question: What does the source list for `CCCCCCC(=O)OCCN1C2CCC1CC(=C1c3ccccc3CSc3ccccc31)C2` (racemic) [Example 3, dl N-(β-heptanoyloxyethyl)-11-(3'-nortropylidene)-6,11-dihydrodibenzo(b,e)thiepine]?
Answer: % of animals with a RT less than 40 seconds [1, 3]: 50%; % of animals with a RT less than 40 seconds [1, 4]: 60%; % of animals with a RT less than 40 seconds [1, 5]: 50%; % of animals with a RT less than 40 seconds [1, 6]: 50%; % of animals with a RT less than 40 seconds [1, 7]: 40%; % of animals with a RT less than 40 seconds [1, 8]: 40%; % of animals with a RT less than 40 seconds [1, 9]: 70%; % of animals with a RT less than 40 seconds [1, 10]: 40%; % of animals with a RT less than 40 seconds [1, 11]: 50%; % of animals with a RT less than 40 seconds [1, 12]: 30%; % of animals with a RT less than 40 seconds [1, 13]: 40%; % of animals with a RT less than 40 seconds [1, 14]: 20%; % inhibition of reactions: L (lacrymation) ([2]; after 4 h): 90%; % inhibition of reactions: S (salivation) ([2]; after 4 h): 30%; % inhibition of reactions: T (trembling) ([2]; after 4 h): 40%; % inhibition of reactions: L (lacrymation) ([2]; after 1 d): 30%; % inhibition of reactions: S (salivation) ([2]; after 1 d): 20%; % inhibition of reactions: T (trembling) ([2]; after 1 d): 0%; % inhibition of reactions: L (lacrymation) ([2]; after 2 d): 100%; % inhibition of reactions: S (salivation) ([2]; after 2 d): 10%; % inhibition of reactions: T (trembling) ([2]; after 2 d): 100%; % inhibition of reactions: L (lacrymation) ([2]; after 3 d): 20%; % inhibition of reactions: S (salivation) ([2]; after 3 d): 0%; % inhibition of reactions: L (lacrymation) ([2]; after 4 d): 0%; % inhibition of reactions: S (salivation) ([2]; after 4 d): 10%; % inhibition of reactions: T (trembling) ([2]; after 4 d): 20%; antitremorine activity (in words) ([2]; s.c. sesame oil, mice, Table I): prolonged antitremorine activity

Question: `CCCCCCCCCCCCCCCC(=O)OCCN1C2CCC1CC(=C1c3ccccc3CSc3ccccc31)C2` (racemic) [Example 5, dl N-(β-palmitoyloxyethyl)-11-(3'-nortropylidene)-6,11-dihydrodibenzo(b,e)thiepine] was tested. Which “% of animals with a RT less than 40 seconds” value (shortened to “% of animals”) [1, 3] did it give?
Answer: 20%

Question: What about the “% of animals” value [1, 4] of the same compound?
Answer: 30%

Question: What about the “% of animals” value [1, 5] of the same compound?
Answer: 40%

Question: And the “% of animals” value [1, 6]?
Answer: 10%

Question: And the “% of animals” value [1, 7]?
Answer: 30%

Question: What about the “% of animals” value [1, 8] of the same compound?
Answer: 30%

Question: And the “% of animals” value [1, 9]?
Answer: 70%

Question: What about the “% of animals” value [1, 10] of the same compound?
Answer: 60%

Question: And the “% of animals” value [1, 11]?
Answer: 30%

Question: What about the “% of animals” value [1, 12] of the same compound?
Answer: 20%

Question: What about the “% of animals” value [1, 13] of the same compound?
Answer: 20%

Question: And the “% of animals” value [1, 14]?
Answer: 30%

Question: For `O=C1CCCN1CC#CCN1CCCC1` [Oxotremorine, oxotremorine, reference compound], which “% of animals” value ([1]; oxotremorine controls, 0.5 mg/kg i.p., 4 h) is on record?
Answer: 10%

Question: And the “% of animals” value ([1]; oxotremorine controls, 0.5 mg/kg i.p., 1 d)?
Answer: 10%

Question: What about the “% of animals” value ([1]; oxotremorine controls, 0.5 mg/kg i.p., 2 d) of the same compound?
Answer: 10%

Question: What about the “% of animals” value ([1]; oxotremorine controls, 0.5 mg/kg i.p., 3 d) of the same compound?
Answer: 10%

Question: And the “% of animals” value ([1]; oxotremorine controls, 0.5 mg/kg i.p., 4 d)?
Answer: 0%

Question: What about the “% of animals” value ([1]; oxotremorine controls, 0.5 mg/kg i.p., 7 d) of the same compound?
Answer: 0%
